Measurements as given in patent publication US20230339988A1, “Metal Complexes Of Macrocycles And/Or Isoprenoids And/Or Linear Tetrapyrroles By Mechanochemistry (Grinding Or Milling), Preparation Method Thereof, Sunscreen/Concealer/UV Absorber Thereof, Self-Assembled Coating Material Thereof, Superamphiphilic Material Or Surfaces Thereof, Hair Dyeing Thereof …” (priority 2019, published 2023).

Assay: Solubility in carbon disulfide
Type: physicochemical
Settings: test tube
Description: Carbon disulfide is a non-polar solvent which is commonly used as solvent for metal complexes.
It is clear that all of the reactants reacted by this mechanochemical process. The mechanochemical reaction promotes a chemical change.

solubility in carbon disulfide: completely soluble
SMILES: COc1cc(/C=C/C(=O)CC(=O)/C=C/c2ccc(O)c(OC)c2)ccc1O [Curcumin]
